# Test results published in article PMC4576993 (Leukemia, 2011).
# Experiment: Renal excretion of vosaroxin and metabolites in urine, 24 h after first dose
# Format: in vivo, human
# Settings: 18 and 27 mg/m^2 weekly, eight patients
smiles,measurement,setting,value
CO[C@H]1CN(c2ccc3c(=O)c(C(=O)O)cn(-c4nccs4)c3n2)C[C@@H]1N [N-desmethyl-vosaroxin],Average renal excretion of the total dose infused,24 h after first dose,0.99%
same,Detection in urine,first dose,the only metabolite detected in urine
same,Ratio of N-desmethyl-vosaroxin to vosaroxin excretion in urine,"first dose, coefficient of variation 40%",0.43
